The results in this text go back to patent US5622944A, “Testosterone prodrugs for improved drug delivery” (Affymax Technologies N.V., priority 1995, dated 1997).

A short description of series [1]: in vitro. It counts as in vitro ADME. The settings on record: 37° C.; for half-life: human, serum. The procedure:
The hydrolytic activity of the sterol prodrug may be evaluated by studies of the chemical or enzymatic conversion of the prodrug to the unmodified parent compound, as described in Example 26.
Generally, the sterol/chemical modifier complex is dissolved in a minimum amount of a suitable solvent, such as ethanol, and the resulting solution is added to a sample of human serum. Following incubation, aliquots are then removed at various time points and analyzed to determine the extent of hydrolysis. Table I herein lists the representative serum half-lives of a number of testosterone prodrugs according to the present invention.
The rates of conversion are readily determined, for example by spectrophotometric methods or by gas-liquid or high performance liquid chromatography. Half-lives and other kinetic parameters may then be calculated using standard techniques.
Determination of Testosterone Prodrug Hydrolysis in Serum
Stock solutions (6 mM) of the testosterone prodrugs were prepared in ethanol (dissolution was accomplished by vortexing, sonication, or warming at 37° C., as needed). If required for dissolution, one drop of a co-solvent such as dimethylsulfoxide, dimethylformamide or methanol was added. (Acetonitrile is undesirable because it deactivates the serum enzymes).
HPLC separation methods were established for each study by dilution of the above stock solutions (6 μl) in acetonitrile (1 ml) to form 36 μM solutions. Samples (10 μl) were injected onto a Nucleosil 5C8 column (250×4 mm ID) fitted with an additional guard column (11×4 mm ID) and eluted with a mobile phase of approximately 65% HPLC grade water and 35% trifluoroacetic acid in acetonitrile (0.1% TFA in acetonitrile). Exact proportions of the mobile phase eluents were adjusted in each case to give optimum separation and run times.
Freshly defrosted human serum (3 ml, Sigma) was warmed at 37° C. for five minutes and then the testosterone prodrug stock solution (60 μl) was added with vortexing. […] The aliquots were added to 800 μl of 2% zinc sulfate solution in a 1.5 ml disposable microcentrifuge tube, vortexed immediately and centrifuged at 14,000 RPM for 3 minutes. The supernatants (10 μl) were injected onto the HPLC and peak areas used to determine the percent of parent drug formed or percent of prodrug remaining. Serum blanks were prepared similarly by addition of serum to the zinc sulfate solution, followed by centrifugation. Initial (time=0) samples were prepared by adding serum to the zinc sulfate solution, followed by addition of the complex and separation by centrifugation. The time=0 samples, as well as the original stock solutions, were also used to assess the stability of the complex in the absence of enzyme. Half-lives were determined using the following equation : […]
and plotting time (x ordinate) versus the natural logarithm of percent remaining prodrug (y ordinate) to obtain the slope (m) and the y intercept (b).

Series [2] can be described thus: in vitro. It counts as cell-based, human. The note with it: human, dermal fibroblasts, MTT; for CC50 at 2 h: IC50 2 h (cytotoxicity), 2 h incubation; for CC50 at 16 h: IC50 16 h (cytotoxicity), 16 h incubation. On the procedure: As discussed above, the chemical modifier, when present in the subject in its free or released form, and in appropriately administered amounts, should preferably be non-toxic. Additionally, any further in vivo degradation products of the chemical modifier should be non-toxic, as well. Table 2 provides in vitro relative cytotoxicity data for a number of testosterone/chemical modifier complexes, prepared in accordance with the invention. The cytotoxicity assessment was carried out by examining the viability of human dermal fibroblasts in the presence of a number of testosterone/chemical modifier complexes in accordance with the present invention. Details of the experimental protocol are summarized in Example 27.
The viability of human dermal fibroblasts in the presence of the 17-hydroxy sterol/chemical modifier compounds was assayed using MTT (3-[4,5-dimethylthiazol-2-yl]-2,5-diphenyltetrazolium bromide) reduction to formazan by mitochondrial enzymes as an indicator of cytotoxicity (Swisher, et al.). Confluent fibroblast cells were incubated for 2 or 16 hours in the presence of increasing concentrations of drug complex. At the end of the incubation period, medium was replaced for 4 hours by medium containing the tetrazolium salt, MTT. Metabolism of MTT to a blue formazan was quantitated by spectrophotometry at 540 nm.

Series [3] is classed as in vitro ADME, mouse. The settings on record: for Flux, active electrotransport (ET): murine skin, active cells (ETm), 10 mM donor, 100 uA/cm^2, 6 h, 32° C.; for Enhancement in in vitro electrotransport skin flux compared to testosterone: hairless mouse skin, vs unmodified testosterone, 'nearly 10-fold enhancement or greater'. On the procedure: In vitro electrotransport of testosterone/chemical modifier complexes across hairless mouse skin was evaluated as described in Example 28. The experiments were conducted using modified Valia-Chien cells having 1.0 ml donor and 2.5 ml receptor cells. Anodic transport was carried out using a silver wire-based salt bridge in the donor compartment and a silver chloride cathode in the receptor. Cathodic transport was effected by reversing the electrode configuration. The cells were connected in series and a constant current and temperature were supplied to each cell.
After a predetermined period of time (6 h), aliquots were removed from the receiver phase for immediate analysis by HPLC to determine cumulative flux.
The electrotransport of testosterone/chemical modifier complexes was achieved using modified Valia-Chien cells (1.0 ml donor and 2.5 ml receptor cells). Full thickness, hairless mouse skin (Charles River Labs, Wilmington, Mass.) was soaked for one hour in phosphate buffered saline (PBS, pH=7.4) before placing between each compartment (dermal side of skin facing toward receptor). One passive (P1:data) and two or more (ETm :data) active cells were used to screen each compound.
A 10 mM (1 ml) aqueous solution of testosterone drug/prodrug was placed in the donor (unstirred) compartment and the receptor (stirred) was filled with 2.5 ml of PBS. In order to check for egress due to e.g. damaged skin, a zero hour sample of receptor ([…]) was taken one half hour after the drug solution was placed in the donor compartment. Replacement fluid of equal sample volume was added to the receptor compartment immediately after samples were taken.
Anodic electrotransport was achieved using a silver wire (immersed in a polyvinylalcohol-based salt bridge to minimize junction potential) in the donor compartment and a AgCl cathode in the receptor. […] The electrotransport cells were connected in series and constant current (100 uA/cm^2, […] for a skin area of 0.64 cm^2) and temperature (32° C.) were supplied to each cell. After six hours of active/passive transport, aliquots (200 ul) of the receptor were sampled and immediately analyzed by HPLC.
A standard plot of peak area and concentration for each compound was constructed using HPLC. The peak areas of the samples were determined and the concentrations calculated using the standard data. Cumulative flux was calculated using Quickbasic and reported in nmol/cm^2 /hr.

The nature of series [4]: Degradation (%/d).
A short description of series [5]: Water solubility (H2O sol). The note with it: H2O sol.
Where [6] appears, read: footnote 1: prodrug remaining, no testosterone formed.

Molecules are shown by their SMILES. Counter-ions that a name gives are not always drawn. A value given as a limit tells only on which side of the number the result lay.

The half-life is the time in which the quantity being followed falls by half. As usually defined, the CC50 is the concentration that lowers cell viability or growth by half. Low values mean harm at low concentration, high ones better tolerance by the cells. The term solubility denotes how much of the substance goes into solution per volume. In the case of `C[C@]12CC[C@H]3[C@@H](CCC4=CC(=O)CC[C@@]43C)[C@@H]1CC[C@@H]2OC(=O)C[N+](C)(C)C` [Code 2.2, testosterone-17β-betainoyl ester, bromide salt], the half-life in series [1] (HPLC) is 14 h. In series [2], this compound registered a 50% cytotoxic concentration (CC50) at 2 h of 2300 µM and a CC50 at 16 h of 650 µM. For the same compound, the “Flux, active electrotransport (ET)” value in series [3] was 7.9 ± 4.1 nmol/cm^2 /hr. This compound had a Degradation in series [4] of 0 %/d. Further, the solubility in series [5] was found to be 10 mg/mL.
Consider `C[C@]12CC[C@H]3[C@@H](CCC4=CC(=O)CC[C@@]43C)[C@@H]1CC[C@@H]2OC(=O)CCC[N+](C)(C)C` [Code 2.3], for which the half-life in series [1] (setting [6]) was roughly 15 h. In series [2], this compound registered a cytotoxic concentration (CC50) at 2 h of 653 µM and a CC50 at 16 h of 172 µM. The “Flux, active electrotransport (ET)” value in series [3] was found to be 2.0 ± 0.8 nmol/cm^2 /hr. For the same compound, in series [4], the Degradation is 0 %/d. Moreover, the solubility in series [5] turned out to be 20 mg/mL.
`C[C@]12CC[C@H]3[C@@H](CCC4=CC(=O)CC[C@@]43C)[C@@H]1CC[C@@H]2OC(=O)CCCC[N+](C)(C)C` [Code 2.4] had a half-life in series [1] (HPLC) of roughly 720 h. Further, in series [2], the cytotoxic concentration (CC50) at 2 h was found to be 609 µM and the CC50 at 16 h came to 568 µM. The “Flux, active electrotransport (ET)” value in series [3] was determined as 2.7 ± 1.1 nmol/cm^2 /hr. Besides, the Degradation in series [4] worked out at 0 %/d. Moreover, in series [5], the concentration in solution (solubility) came to 18 mg/mL.
For `C[C@]12CC[C@H]3[C@@H](CCC4=CC(=O)CC[C@@]43C)[C@@H]1CC[C@@H]2OC(=O)CC[N+](C)(C)C` [Code 2.5, testosterone-17β-(N,N,N-trimethyl-β-alaninyl ester), bromide salt], in series [1] (setting [6]), the half-life is roughly 0.167 h. In series [2], this compound gave a cytotoxic concentration (CC50) at 2 h greater than 600 µM and a CC50 at 16 h of 329 µM. Besides, in series [3], the “Enhancement in in vitro electrotransport skin flux compared to testosterone” value was no less than 10 fold and the “Flux, active electrotransport (ET)” value is reported as 18.0 ± 2.4 nmol/cm^2 /hr. The same compound showed a Degradation in series [4] of 0 %/d. Further, in series [5], the solubility was found to be 0.3 mg/mL.
Turning to `CC(=O)O[C@@H]1C[C@@H](C(=O)O[C@H]2CC[C@H]3[C@@H]4CCC5=CC(=O)CC[C@]5(C)[C@H]4CC[C@]23C)[N+](C)(C)C1` [Code 2.6, testosterone-17β-[(O-acetyl)-betonicinyl ester], chloride salt], the half-life in series [1] (HPLC) is 8.2 h. Besides, in series [2], the half-maximal cytotoxic concentration (CC50) at 2 h turned out to be 733 µM and half-maximal cytotoxicity (CC50 at 16 h) was put at 271 µM. Moreover, in series [3], the “Flux, active electrotransport (ET)” value was 0 nmol/cm^2 /hr. In series [4], this compound had a Degradation of 0 %/d. Also, in series [5], the solubility was 21 mg/mL.
In the case of `C[n+]1cccc(C(=O)O[C@H]2CC[C@H]3[C@@H]4CCC5=CC(=O)CC[C@]5(C)[C@H]4CC[C@]23C)c1` [Code 2.8], in series [1] (HPLC), the half-life was 25.5 h. In series [2], this compound displayed a 50% cytotoxic concentration (CC50) at 2 h of 598 µM and a CC50 at 16 h of 492 µM. Moreover, the “Flux, active electrotransport (ET)” value in series [3] turned out to be 3.1 ± 1.2 nmol/cm^2 /hr. Also, the Degradation in series [4] worked out at 0 %/d. The amount in solution in series [5] (solubility) came to 0.8 mg/mL.
The compound `C[C@]12CC[C@H]3[C@@H](CCC4=CC(=O)CC[C@@]43C)[C@@H]1CC[C@@H]2OC(=O)OCOC(=O)CCCCC[N+](C)(C)C` [Code 3.2, testosterone-17β-[6-(N,N,N-trimethylammonio)hexanoyloxy-methyl]carbonate iodide salt] yielded a half-life in series [1] (HPLC) of 0.217 h. For the same compound, in series [2], half-maximal cytotoxicity (CC50 at 2 h) was put at 615 µM and the CC50 at 16 h was 406 µM. The “Flux, active electrotransport (ET)” value in series [3] worked out at 4.8 ± 0.6 nmol/cm^2 /hr. The Degradation in series [4] was 77 %/d. This compound also came in with a solubility in series [5] of 20 mg/mL.
Regarding `C[C@]12CC[C@H]3[C@@H](CCC4=CC(=O)CC[C@@]43C)[C@@H]1CC[C@@H]2OC(=O)Oc1ccc(CC[N+](C)(C)C)cc1` [Code 3.4, testosterone-17β-candicine carbonate, iodide salt], the half-life in series [1] (HPLC) was 5.8 h. Moreover, in series [2], half-maximal cytotoxicity (CC50 at 2 h) was put at 544 µM and the CC50 at 16 h is 44.6 µM. Also, the “Flux, active electrotransport (ET)” value in series [3] was determined as 0 nmol/cm^2 /hr. Besides, the Degradation in series [4] worked out at 1 %/d. Moreover, the solubility in series [5] worked out at 0.1 mg/mL.
For `COC(=O)[C@H](COC(=O)O[C@H]1CC[C@H]2[C@@H]3CCC4=CC(=O)CC[C@]4(C)[C@H]3CC[C@]12C)N(C)C` [Code 3.6, testosterone-17β-(N,N-dimethyl-L-serine methyl ester) carbonate, hydrochloride salt], the Serum half-life in series [1] (human serum, HPLC, hydrochloride salt) is 0.75 h. In series [2], this compound came in with a CC50 at 2 h of 224 µM and a CC50 at 16 h of 157 µM. Moreover, in series [3], the “Flux, active electrotransport (ET)” value stood at 6.8 ± 0.3 nmol/cm^2 /hr. In series [4], this compound showed a Degradation of 3.8 %/d. For the same compound, in series [5], the solubility was determined as 20 mg/mL.
`C[C@]12CC[C@H]3[C@@H](CCC4=CC(=O)CC[C@@]43C)[C@@H]1CC[C@@H]2OC(=O)C=CC[N+](C)(C)C` [Code 3.8, testosterone-17β-[(4-N,N,N-trimethylammonio) crotonate], chloride salt] had a half-life in series [1] (HPLC) of 122 h. Further, in series [2], the cytotoxic concentration (CC50) at 2 h was 2290 µM and it took 583 µM to reach half-maximal cytotoxicity (CC50 at 16 h). Also, in series [3], the “Enhancement in in vitro electrotransport skin flux compared to testosterone” value is recorded as no less than 10 fold and the “Flux, active electrotransport (ET)” value is recorded as 9.4 ± 1.2 nmol/cm^2 /hr. In series [4], this compound had a Degradation of 0 %/d. For the same compound, the solubility in series [5] stood at 21 mg/mL.
